In the test the test system is L1210 leukemia ip in BDF1 mice, survival T/C. Description: NCI In Vivo Anticancer Drug Screen. Data for tumor model L1210 Leukemia (intraperitoneal) in B6D2F1 (BDF1) mice. The settings on record: endpoint: mean survival time, higher = longer survival. A digest of the protocol: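 Tumor was transplanted into mice, which were then dosed with test compound or vehicle alone. Survival was recorded for each group, and the treated figure was expressed relative to the control figure.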

[1] abbreviates: dose: 100.0 mg/kg/injection, schedule: Q04DX003 (ip), vehicle: Klucel (hydroxypropylcellulose) (HPC).
Setting [2] is: dose: 100.0 mg/kg/injection, schedule: Q01DX001 (ip), vehicle: saline.
Where [3] appears, read: dose: 200.0 mg/kg/injection, schedule: Q01DX001 (ip), vehicle: saline.
Setting [4] is: dose: 400.0 mg/kg/injection, schedule: Q01DX001 (ip), vehicle: saline.
The mark [5] stands for this setting: dose: 200.0 mg/kg/injection, schedule: Q04DX003 (ip), vehicle: Klucel (hydroxypropylcellulose) (HPC).
[6] abbreviates: dose: 400.0 mg/kg/injection, schedule: Q04DX003 (ip), vehicle: Klucel (hydroxypropylcellulose) (HPC).
[7] abbreviates: dose: 100.0 mg/kg/injection, schedule: Q01DX001 (ip), vehicle: saline with Tween-80.
Setting [8] is: dose: 200.0 mg/kg/injection, schedule: Q01DX001 (ip), vehicle: saline with Tween-80.
Where [9] appears, read: dose: 400.0 mg/kg/injection, schedule: Q01DX001 (ip), vehicle: saline with Tween-80.

Several values for one entry are separate records, joined by “and”; a condition that tells them apart may be missing. Identical values can stand only once. Inconclusive results and toxic doses are left out.

Regarding `O=[N+]([O-])c1ccc2c(c1)-c1ccccc1C1=NCCN12`, the T/C was 91 % of control (dose: 20.0 mg/kg/injection, schedule: Q04DX003 (ip), vehicle: Klucel (hydroxypropylcellulose) (HPC)); 105 % of control (dose: 25.0 mg/kg/injection, schedule: Q01DX009 (ip), vehicle: Klucel (hydroxypropylcellulose) (HPC)); 96 % of control (dose: 40.0 mg/kg/injection, schedule: Q04DX003 (ip), vehicle: Klucel (hydroxypropylcellulose) (HPC)); 102 % of control (dose: 50.0 mg/kg/injection, schedule: Q01DX009 (ip), vehicle: Klucel (hydroxypropylcellulose) (HPC)); 102 % of control (dose: 80.0 mg/kg/injection, schedule: Q04DX003 (ip), vehicle: Klucel (hydroxypropylcellulose) (HPC)); 105 % of control (dose: 100.0 mg/kg/injection, schedule: Q01DX009 (ip), vehicle: Klucel (hydroxypropylcellulose) (HPC)). Moreover, the T/C under setting [1] was 101 % of control.
`O=C1OCN(c2ccccc2)/C1=C/c1ccccc1`: the T/C runs as follows: under setting [2], 89 % of control; under setting [3], 94 % of control; under setting [4], 93 % of control.
Take `O=C(N/N=C/c1cccc([N+](=O)[O-])c1)c1ccc(O)cc1`: the T/C is, setting by setting: (dose: 100.0 mg/kg/injection, schedule: Q04DX002 (ip), vehicle: Klucel (hydroxypropylcellulose) (HPC)) 102 % of control; (dose: 200.0 mg/kg/injection, schedule: Q04DX002 (ip), vehicle: Klucel (hydroxypropylcellulose) (HPC)) 105 % of control.
As to `Cc1ccc(NC(=O)N2CCN(c3ccccc3)CC2)c([N+](=O)[O-])c1`, the T/C reads like this: under setting [1], 96 % of control; under setting [5], 102 % of control; under setting [6], 91 % of control.
`ClC1CCC[N-]C1.ClC1CCC[N-]C1.[Cl][Pt+2][Cl]` (configuration not stated): the T/C (dose: 50.0 mg/kg/injection, schedule: Q04DX003 (ip), vehicle: saline with Tween-80) was 102 % of control; the T/C (dose: 100.0 mg/kg/injection, schedule: Q04DX003 (ip), vehicle: saline with Tween-80) was 104 % of control; the T/C (dose: 200.0 mg/kg/injection, schedule: Q04DX003 (ip), vehicle: saline with Tween-80) was 102 % of control.
For the compound `NCCCCC(=O)NC(CCCCNC(=O)OCc1ccccc1)C(=O)NCCCCC(=O)NC(CCCCNC(=O)OCc1ccccc1)C(=O)NCCCCC(=O)NC(CCCCNC(=O)OCc1ccccc1)C(=O)NCCCCC(=O)NC(CCCCNC(=O)OCc1ccccc1)C(=O)NCCCCC(=O)NC(CCCCNC(=O)OCc1ccccc1)C(=O)NCCCCC(=O)NC(CCCCNC(=O)OCc1ccccc1)C(=O)NCCCCC(=O)NC(CCCCNC(=O)OCc1ccccc1)C(=O)O` (configuration not stated), the T/C was 92 % of control under setting [2], 90 % of control under setting [3] and 95 % of control under setting [4].
Take `COc1cc(C=Nc2ccc3c(c2)OCO3)ccc1OC(=O)c1ccccc1`: the T/C runs as follows: (dose: 100.0 mg/kg/injection, schedule: Q04DX002 (ip), vehicle: saline with Tween-80) 96 % of control; (dose: 200.0 mg/kg/injection, schedule: Q04DX002 (ip), vehicle: saline with Tween-80) 100 % of control; (dose: 400.0 mg/kg/injection, schedule: Q04DX002 (ip), vehicle: saline with Tween-80) 93 % of control.
Turning to `Clc1ccc(SCN2CCCCC2)cc1`, the T/C (dose: 25.0 mg/kg/injection, schedule: Q04DX003 (ip), vehicle: Klucel (hydroxypropylcellulose) (HPC)) was 93 % of control; the T/C (dose: 50.0 mg/kg/injection, schedule: Q04DX003 (ip), vehicle: Klucel (hydroxypropylcellulose) (HPC)) is 95 % of control; the T/C under setting [1] is 93 % of control and 95 % of control.
Take `OCC1OC(n2cnc3c(=S)nc(NO)[nH]c32)C(O)C1O` (configuration not stated): the T/C by setting is: (dose: 12.5 mg/kg/injection, schedule: Q01DX005 (ip), vehicle: saline) 165 % of control; (dose: 50.0 mg/kg/injection, schedule: Q01DX005 (ip), vehicle: saline) 88 % of control; (dose: 100.0 mg/kg/injection, schedule: Q01DX005 (ip), vehicle: saline) 107 % of control.
Take `COc1ccc(Cl)cc1NS(=O)(=O)c1c(C)cc(C)cc1C`: the T/C is, setting by setting: (dose: 100.0 mg/kg/injection, schedule: Q01DX009 (ip), vehicle: saline) 104 % of control; (dose: 200.0 mg/kg/injection, schedule: Q01DX009 (ip), vehicle: saline) 96 % of control; (dose: 400.0 mg/kg/injection, schedule: Q01DX009 (ip), vehicle: saline) 111 % of control.
`CC(Br)CNC(=O)c1cc([N+](=O)[O-])cc([N+](=O)[O-])c1` (configuration not stated): the T/C by setting is: (dose: 75.0 mg/kg/injection, schedule: Q04DX003 (ip), vehicle: Klucel (hydroxypropylcellulose) (HPC)) 96 % of control; (dose: 150.0 mg/kg/injection, schedule: Q04DX003 (ip), vehicle: Klucel (hydroxypropylcellulose) (HPC)) 92 % of control; (dose: 300.0 mg/kg/injection, schedule: Q04DX003 (ip), vehicle: Klucel (hydroxypropylcellulose) (HPC)) 94 % of control.
In the case of `BrC[P+](c1ccccc1)(c1ccccc1)c1ccccc1`, the T/C (dose: 3.12 mg/kg/injection, schedule: Q04DX002 (ip), vehicle: saline) is 108 % of control; the T/C (dose: 6.25 mg/kg/injection, schedule: Q04DX002 (ip), vehicle: saline) is 104 % of control; the T/C (dose: 12.5 mg/kg/injection, schedule: Q04DX002 (ip), vehicle: saline) was 105 % of control and 112 % of control.
For the compound `CN(C)C1=NS(=O)(=O)N=C(N(C)c2ccccc2)O1`, the T/C runs as follows: (dose: 100.0 mg/kg/injection, schedule: Q01DX001 (ip), vehicle: Klucel (hydroxypropylcellulose) (HPC)) 109 % of control; under setting [1], 97 % of control; (dose: 200.0 mg/kg/injection, schedule: Q01DX001 (ip), vehicle: Klucel (hydroxypropylcellulose) (HPC)) 101 % of control; under setting [5], 105 % of control; (dose: 400.0 mg/kg/injection, schedule: Q01DX001 (ip), vehicle: Klucel (hydroxypropylcellulose) (HPC)) 103 % of control; under setting [6], 103 % of control.
For `O=S(=O)(c1ccccc1)N1CC2C3C=CC(C3)C2C1` (configuration not stated), the T/C runs as follows: under setting [1], 93 % of control; under setting [5], 109 % of control; under setting [6], 95 % of control.
As for `CC1(C)OC2COC3(COC(C)(C)O3)C(O)C2O1` (configuration not stated), the T/C is 96 % of control (dose: 100.0 mg/kg/injection, schedule: Q04DX002 (ip), vehicle: saline); 100 % of control (dose: 200.0 mg/kg/injection, schedule: Q04DX002 (ip), vehicle: saline); 104 % of control (dose: 400.0 mg/kg/injection, schedule: Q04DX002 (ip), vehicle: saline).
In the case of `N#Cc1ccnc2ccccc12`, the T/C (dose: 100.0 mg/kg/injection, schedule: Q01DX001 (ip), vehicle: carboxymethylcellulose (CMC)) was 97 % of control; the T/C (dose: 200.0 mg/kg/injection, schedule: Q01DX001 (ip), vehicle: carboxymethylcellulose (CMC)) was 97 % of control; the T/C (dose: 400.0 mg/kg/injection, schedule: Q01DX001 (ip), vehicle: carboxymethylcellulose (CMC)) was 98 % of control.
In the case of `NC(N)=Nc1ccc([N+](=O)[O-])cc1`, the T/C by setting is: (dose: 12.5 mg/kg/injection, schedule: Q04DX002 (ip), vehicle: Klucel (hydroxypropylcellulose) (HPC)) 103 % of control; (dose: 25.0 mg/kg/injection, schedule: Q04DX002 (ip), vehicle: Klucel (hydroxypropylcellulose) (HPC)) 98 % of control; (dose: 50.0 mg/kg/injection, schedule: Q04DX002 (ip), vehicle: Klucel (hydroxypropylcellulose) (HPC)) 103 % of control.
`CCOc1ncnc2c1nnn2C1OC(CO)C(O)C1O` (configuration not stated): the T/C runs as follows: (dose: 12.5 mg/kg/injection, schedule: Q01DX001 (ip), vehicle: saline with Tween-80) 105 % of control; (dose: 25.0 mg/kg/injection, schedule: Q01DX001 (ip), vehicle: saline with Tween-80) 107 % of control; (dose: 50.0 mg/kg/injection, schedule: Q01DX001 (ip), vehicle: saline with Tween-80) 105 % of control; under setting [7], 104 % of control; under setting [8], 105 % of control; under setting [9], 108 % of control.
For `FC(F)(F)C(F)(F)C1=NS1(C(F)(C(F)(F)F)C(F)(F)F)C(F)(C(F)(F)F)C(F)(F)F`, the T/C is 94 % of control (dose: 100.0 mg/kg/injection, schedule: Q01DX001 (ip), vehicle: acetone); 103 % of control (dose: 200.0 mg/kg/injection, schedule: Q01DX001 (ip), vehicle: acetone); 101 % of control (dose: 400.0 mg/kg/injection, schedule: Q01DX001 (ip), vehicle: acetone).
On to `CC(C)(C)C1CCC2SC(C)(C(C)(C)C)CC(C(C)(C)C)C2C1` (configuration not stated), for which the T/C under setting [7] was 104 % of control, the T/C under setting [8] was 98 % of control and the T/C under setting [9] was 91 % of control.
For the compound `COC(=O)c1cc(=O)c2c(=O)[nH]c(=O)n(C)c2[nH]1`, the T/C under setting [1] is 94 % of control, the T/C under setting [5] was 101 % of control and the T/C under setting [6] is 95 % of control.

The values above are taken from PubChem BioAssay AID248 (DTP/NCI, 2004).
